Measurements from PMC8629650, “Novel Elongator Protein 2 Inhibitors Mitigating Tumor Necrosis Factor-α Induced Osteogenic Differentiation Inhibition” (BioMed Research International, 2021).
Read-outs that look alike come from different tables or passages of the source.

How the values were obtained:
[1] = molecular target: T1, mouse ELP2 protein (Mus musculus, UniProt Q91WG4); experiment: Surface plasmon resonance (SPR) affinity analysis, compounds fixed on the chip; type: binding; conditions: for koff: read-out: Avg Koff; for kon: read-out: Avg Kon; for dissociation rate (in words): excluded from further testing
T1 sequence (Q91WG4 1-831): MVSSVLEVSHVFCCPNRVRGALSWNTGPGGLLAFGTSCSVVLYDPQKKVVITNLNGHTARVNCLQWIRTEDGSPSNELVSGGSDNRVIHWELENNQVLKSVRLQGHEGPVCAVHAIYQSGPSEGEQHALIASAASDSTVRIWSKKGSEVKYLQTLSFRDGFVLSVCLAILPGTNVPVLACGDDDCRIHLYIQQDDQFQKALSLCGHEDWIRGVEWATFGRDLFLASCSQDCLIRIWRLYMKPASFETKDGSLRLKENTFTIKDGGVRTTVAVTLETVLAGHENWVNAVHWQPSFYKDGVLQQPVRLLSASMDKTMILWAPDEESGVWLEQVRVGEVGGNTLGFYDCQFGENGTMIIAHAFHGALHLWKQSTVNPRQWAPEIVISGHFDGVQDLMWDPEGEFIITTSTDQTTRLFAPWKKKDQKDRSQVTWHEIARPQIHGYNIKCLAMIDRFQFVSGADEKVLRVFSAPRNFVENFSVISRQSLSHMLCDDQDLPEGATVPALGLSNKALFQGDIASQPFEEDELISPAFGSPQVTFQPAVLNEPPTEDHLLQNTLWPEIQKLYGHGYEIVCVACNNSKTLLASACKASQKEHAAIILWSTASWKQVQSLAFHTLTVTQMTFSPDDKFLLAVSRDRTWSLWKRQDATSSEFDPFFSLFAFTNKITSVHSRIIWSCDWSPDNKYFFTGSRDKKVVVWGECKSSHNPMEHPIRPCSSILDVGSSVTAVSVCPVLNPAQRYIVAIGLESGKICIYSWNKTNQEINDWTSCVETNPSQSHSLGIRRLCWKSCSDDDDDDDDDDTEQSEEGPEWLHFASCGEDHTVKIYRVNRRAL
Protocol: To validate the binding affinity of the candidate compounds with ELP2 protein, we tested the binding affinity through SPR assay. The experiment was performed as previous reported. Briefly, the candidate molecules are crossed onto the chip surface by hydrogen substitution reaction. During the experimental SPR, the chips were first primed with running buffer (1x PBS containing 5% DMSO). […] To validate the reliability of our method, we selected biotin and rapamycin binding with FKBP12 as a system control. Additionally, the solvents DMSO for compounds and PBS (pH = 7.0) for proteins were measured individually as blank controls and background noise controls.
Under the technique of photo-cross-linker biosensor chip, the candidate compounds were immobilized onto the chemically modified chip surface in random orientations and without any attached label or linker. After the compounds were fixed onto the surface of the chip, ELP2 protein solved in PBS were passed over the chip surface. The original sensor gram information was collected in real time.
The raw sensor gram information was collected in real time. The binding of each compound to the ELP2 protein during each cycle is represented by the response unit (RU) of surface resonance.

[2] = test system: C2C12 cells; experiment: Alkaline phosphatase (ALP) activity under TNF-α-induced osteogenic differentiation inhibition, ID model; type: cell-based; conditions: for effect on TNF-α-induced inhibition of osteoblast differentiation (ALP stain and activity) / EC50: C2C12 cells; for effect on TNF-α-induced inhibition of osteoblast differentiation (ALP stain and activity): vs. TNF-α group; for EC50: Mus musculus, ID model, TNF-α; for effect on TNF-α-induced inhibition (ALP), data not shown: cell model not specified (C2C12 / MC3T3-E1)
Protocol: (§1) C2C12 cells were kept in DMEM complemented with the 10% fetal dairy serum and 1% penicillin/streptomycin and MC3T3-E1 cells in minimally needed culture medium (MEM, HyClone, GE Healthcare, USA) supplemented with 10% fetal bovine serum and 1% penicillin/streptomycin, were grown individually, and then cultured at 37.0°C, 5% CO2. As previously reported, cells were cultured for differentiation induction in the presence of TNF-α with or without our candidate compounds.
(§2) […] was detected by ALP activity via the alkaline phosphatase assay kit followed by the instruction. A BioTek microplate spectrophotometer was used to assay the apparent density at the wavelength of 405 nm. ALP activity values are equally common in the density protein found in stem cells determined to use the BCA Protein Assay Kit.
(§3) To determine the effect of the candidate compounds on TNF-α-induced osteogenic differentiation inhibition, we examined the activity of osteogenic marker alkaline phosphatase in the cells. As mentioned in Materials and Method, cells were grown in an adequate osteoblast differentiation environment and tested the alkaline phosphatase activity.
(§4) Figure 3 The ALP stain and activity measurements of 2# and 5# candidate on C2C12 and MC3T3-E1 cell osteogenic differentiations. 2# and 5# compounds show remarkable mitigation against TNF-α induced ALP activity inhibition. The ALP staining observation in each group (a, c). The relative ALP activity were measured from the cell lysates of each group (b, d). Data are mean ± SD; ^∗P < 0.05, ^∗∗P < 0.01, each experiment group vs. the TNF-α treatment cell group.

[3] = test system: MC3T3-E1 cells; experiment: Alkaline phosphatase (ALP) activity under TNF-α-induced osteogenic differentiation inhibition, SD model; type: cell-based; conditions: for EC50: Mus musculus, SD model, TNF-α; for effect on TNF-α-induced inhibition of osteoblast differentiation (ALP stain and activity): vs. TNF-α group
Protocol: as §1, §2, §3, §4

[4] = test system: C2C12 cells; experiment: Mineralization assessment by Alizarin Red S staining; type: cell-based; conditions: day 35, vs. TNF-α control
From the text: (§5) As reported, in two differentiation cell models, the culture medium was replaced every 3 days till 35th day. Mineralization of the cell was found by staining using the Optimized Alizarin Red S Stain Kit by the kit instructions.
(§6) In order to test the function of the candidate compounds on the mineralization activity during osteoblasts differentiation, the self-differentiation (SD) model and inflammatory-differentiated (ID) model cells were stained with Alizarin Red S staining on day 35 after differentiation induction, and the mineralization activity of each group can be estimated by the number of stained spots.
(§7) Figure 5 Alizarin Red S staining of differentiated osteogenic cells, the self-differentiation (SD) model, and inflammatory-differentiated (ID) model cells were stained with Alizarin Red S staining on day 35 after differentiation induction, and the mineralization activity of each group can be estimated by the number of stained spots (bar = 50 μm).

[5] = test system: MC3T3-E1 cells; experiment: as above; type: cell-based; conditions: day 35, vs. TNF-α control
From the text: as §5, §6, §7

[6] = test system: COL-I, ALP, OCN, BMP-2, RUNX-2 and OSX genes in C2C12 and MC3T3-E1 cells; experiment: Q-PCR of osteogenic differentiation marker genes after TNF-α stimulation; type: cell-based; conditions: day 7, C2C12 and MC3T3-E1, vs. TNF-α-stimulated cells
Protocol: The total mRNA was extracted from cell culture using TRIzol reagent (Thermo Scientific USA). The concentration and quality of the RNA were checked using a NanoDrop™ 8000 spectrophotometer, and cDNA was then synthesized. Gene expression according to the recommendations of the reverse transcription kit was detected. Host gene β-actin was selected as the reference gene, and the gene expression level analysis was calculated by the 2^-ΔΔCt quantification method.
(§8) In order to investigate the changes in osteogenic differentiation associated molecules including COL-I, ALP, OCN, BMP-2, RUNX-2, and OSX genes, we performed Q-PCR and Western blot analysis on the differentiation cellular models on the 7th day after osteoblast cell differentiation are shown in Table 2. […] The level of above gene expression was raised in the 2# and the 5# candidate-treated cell with cell morphology phenotype differentiation when compared to the cell stimulated with TNF-α (Figure 6). A further study of the expression of osteoblastic markers at the protein level was performed using Western blot.
Figure 6 Effect of 2# and 5# treatment on TNF-α-stimulated C2C12 (a) and MC3T3-E1 (b) cell osteoblast differentiation-associated marker gene expression. Q-PCR analysis in the differentiation was conducted on the 7th day after osteoblast cell differentiation in the ID and SD models. […]

[7] = test system: osteogenic differentiation marker proteins in differentiation model cells; experiment: Western blot of osteogenic differentiation markers after TNF-α treatment; type: cell-based; conditions: day 7, vs. TNF-α treatment
Protocol: After treatment, using PBS to wash the cells, the cells were lysed with RIPA lysis buffer. The cell lysate was then separated by SDS-PAGE. All proteins were transferred to PVDF membranes (Bio-Rad, USA). The PVDF membrane was then blocked with 5% skim milk in Tris-buffered physiological saline -0.1% Tween-20 for 1 hour and incubated with the following primary antibody: anti-ALP antibody (rabbit), anti-COL-1 antibody (mouse), anti-OCN antibody (mouse), anti-BMP-2 antibody (mouse), anti-Runx2 antibody (mouse), Anti-Osterix (rabbit), and anti-β-actin (mouse), followed by suitable horseradish peroxidase- (HRP-) labeled secondary antibody, blocking buffer for goat anti-rabbit IgG. Images were captured using G&E imaging system.
as §8, with “blot. […]” for “blot.”

[8] = SPR, Elp2 protein 200 nM to 3200 nM passed over the immobilized compound, read-out: Avg KD
[9] = SPR, Elp2 protein 200 nM to 3200 nM passed over the immobilized compound

| SMILES | Kd [1, 8] | koff [1, 9] | kon [1, 9] | other results |
| --- | --- | --- | --- | --- |
| COc1ccc([C@H](CC(=O)N[C@@H](Cc2ccccc2)C(N)=O)c2oc(C)cc(=O)c2O)cc1 [1#] | 118 µM | 0.234 s⁻¹ | 1980 M⁻¹ s⁻¹ | dissociation rate (in words) ([1]; SPR): much faster dissociation rates |
| O=C1c2ccccc2-c2c1c1ccccc1c(=O)n2NCCO [2#] | 1.46 µM | 0.000241 s⁻¹ | 165 M⁻¹ s⁻¹ | effect on TNF-α-induced inhibition of osteoblast differentiation (ALP stain and activity) [2]: significant ease to TNF-α-induced inhibition of osteoblast differentiation; EC50 [2]: 14.7 µM; EC50 [3]: 29.7 µM; effect on TNF-α-induced inhibition of osteoblast differentiation (ALP stain and activity) [3]: significant ease to TNF-α-induced inhibition of osteoblast differentiation; mineralization activity (Alizarin Red S stained spots) [4]: increased the red spot on the cell surface; mineralization activity (Alizarin Red S stained spots) [5]: increased the red spot on the cell surface; expression level of osteogenic differentiation marker genes (COL-I, ALP, OCN, BMP-2, RUNX-2, OSX) [6]: raised; expression of osteogenic differentiation marker proteins [7]: increased |
| Cc1cc(=O)c2c(o1)[C@H](c1cccc(O)c1)CC(=O)O2 [3#] | – | 0.45 s⁻¹ | 2.31 M⁻¹ s⁻¹ | – |
| COCn1ncnc1NCCn1c(C)cc(O)cc1=O [4#] | – | 0.342 s⁻¹ | 1.85 M⁻¹ s⁻¹ | – |
| COc1cc(CCN)c(-c2csc(-c3ccc(O)cc3)n2)cc1OC [5#] | 3.28 µM | 0.0122 s⁻¹ | 3720 M⁻¹ s⁻¹ | effect on TNF-α-induced inhibition of osteoblast differentiation (ALP stain and activity) [2]: significant ease to TNF-α-induced inhibition of osteoblast differentiation; EC50 [2]: 12.2 µM; EC50 [3]: 18.2 µM; effect on TNF-α-induced inhibition of osteoblast differentiation (ALP stain and activity) [3]: significant ease to TNF-α-induced inhibition of osteoblast differentiation; mineralization activity (Alizarin Red S stained spots) [4]: increased the red spot on the cell surface; mineralization activity (Alizarin Red S stained spots) [5]: increased the red spot on the cell surface; expression level of osteogenic differentiation marker genes (COL-I, ALP, OCN, BMP-2, RUNX-2, OSX) [6]: raised; expression of osteogenic differentiation marker proteins [7]: increased |
| COc1cccc(N2Cc3nn(Cc4ccccc4Cl)c(=O)n3C2=O)c1 [6#] | – | 0.415 s⁻¹ | 2.54 M⁻¹ s⁻¹ | – |
| COc1ccc(C(CC(=O)NC(C)C(N)=O)c2oc(C)cc(=O)c2O)cc1 (centres unmarked) [7#] | – | – | – | Kd [1]: 3.17 µM; koff [1]: 0.0011 s⁻¹; kon [1]: 347 M⁻¹ s⁻¹; effect on TNF-α-induced inhibition (ALP), data not shown [2]: only slightly easing of the inhibition resulting from TNF-α |

Second part, led by results:

| Kd [1, 8] | koff [1, 9] | kon [1, 9] | SMILES | other results |
| --- | --- | --- | --- | --- |
| 0.0936 µM | 0.00105 s⁻¹ | 11200 M⁻¹ s⁻¹ | CC1CCCC2(C)CC3OC(=O)C(CN4CCN(C(=O)c5ccco5)CC4)C3C=C12 (centres unmarked) [8#] | effect on TNF-α-induced inhibition (ALP), data not shown [2]: only slightly easing of the inhibition resulting from TNF-α |
| 149 µM | 0.075 s⁻¹ | 502 M⁻¹ s⁻¹ | Cc1cc(O)cc(=O)n1C[C@H](O)c1ccc(O)cc1 [9#] | dissociation rate (in words) ([1]; SPR): much faster dissociation rates |
| – | 0.504 s⁻¹ | 2.18 M⁻¹ s⁻¹ | COc1ccc2c(c1)C(CCn1c(C)cc(O)cc1=O)C(=O)N2 (centres unmarked) [10#] | – |
| 3.48 µM | 0.000774 s⁻¹ | 222 M⁻¹ s⁻¹ | Cc1cc(O)cc(=O)n1C[C@@H](O)c1cccc(O)c1 [11#] | effect on TNF-α-induced inhibition (ALP), data not shown [2]: only slightly easing of the inhibition resulting from TNF-α |
